Values belong to the compound of their own block, whether it stands above or below them.
Tests used:
[1] = test system: Blattella germanica; assay: Topical activity against Blattella germanica (24 hours, LC50, relative to Resmethrin); type: in vivo; details: Blattella germanica 1-4 week old adult males, from LC50
Description: (§1) The insecticidal activities of the compounds of the Examples has been shown by the following tests in four species of insects, namely Aedes aegypti, Musca domestica, Blattella germanica, and Tribolium castaneum.
A 2 μl drop of a solution of the test compound in AR acetone was applied between the rear coxae of 1-4 week old adult males. Knockdown was recorded after 24 hours. Solutions of different concentration were tested from which the concentration of solution which gives 50% kill (LC50) was determined.
(§2) The results are all expressed as activities relative to the activity of Resmathrin (assigned activity=100), determined by the methods described. [formula]

[2] = test system: Aedes aegypti; assay: Larvicidal activity against Aedes aegypti (kill after 24 hours, LC50, relative to Resmethrin); type: in vivo; details: Aedes aegypti 3 day old larvae, from LC50
Description: as §1
A 0.2 cm^3 sample of a solution of test compound in AR acetone was applied to water (200 cm^3) containing 20 (3 day old) larvae. Kill was recorded after 24 hours. Solutions of different concentration were tested from which the concentration of solution which gives 50% kill (LC50) was determined.
as §2

[3] = test system: Tribolium castaneum; assay: Topical activity against Tribolium castaneum (knockdown after 48 hours, LD50, relative to Resmethrin); type: in vivo; details: Tribolium castaneum adults, from LD50
Description: as §1
A 1 μl drop of a solution of test compound in AR acetone was applied topically to adult insects. Knockdown was recorded after 48 hours. Solutions of different concentrations were tested from which the concentration of solution which gives 50% knockdown (LD50) was determined.
as §2

[4] = test system: Tetranychus cinnabarinus; assay: Activity against Tetranychus cinnabarinus (dwarf French bean leaf dip test); type: in vivo; details: foliar, Tetranychus cinnabarinus adult mites, 48 hours, read-out: Tetranychus % KD at 500.0 ppm
Text: (§3) The activities of some of the compounds of the Examples has been shown in the following tests in three species of phytophagous arthropods, namely Megoura vicae, Plutella xylostella, Tetranychus cinnabarinus.
(§4) Aqueous suspensions of test compound were made by adding a solution of test compound in AR acetone to a solution of TWEEN 80 (200 p.p.m.) in water.
The two primary leaves of dwarf French beans were reduced to 2.5 cm squares, and they were infested with ca. 20 adult mites. The leaves were then dipped for 4 seconds in the aqueous suspension of the test compound and allowed to dry. Adult mortality was recorded after 48 hours.

[5] = test system: Megoura vicae; assay: Knockdown of Megoura vicae (dip test); type: in vivo; details: Megoura vicae adults, knockdown after 24 hours
Text: as §3, §4
Adult insects were dipped individually for 4 seconds in the aqueous suspension of test compound and then placed on a filter paper in a Petri dish (9.0 cm diameter) with a p.t.f.e. rim. A 5.0 cm long piece of broad bean stem was added and the lid was put on. Knockdown was recorded after 24 hours.

[6] = test system: Musca domestica; assay: Topical activity against Musca domestica with synergist piperonyl butoxide (24 hours, LC50, relative to Resmethrin); type: in vivo; details: Musca domestica 3-day old adult females, with 0.5% w/v piperonyl butoxide, from LC50
Description: as §1
(§5) (i) A 1 μl drop of a solution of test compound in AR acetone (high purity acetone) was applied to the dorsal thorax of 3-day old adult females. Knockdown was recorded after 24 hours. Solutions of different concentration were tested from which the concentration of solution and therefore the amount of compound which gives 50% kill (LC50) was determined.
(ii) Similar tests were carried out with the amendment that to each test solution, 0.5% w/v of commercial insecticide synergist, piperonyl butoxide, was added.
as §2

[7] = test system: Musca domestica; assay: Topical activity against Musca domestica, compound alone (24 hours, LC50, relative to Resmethrin); type: in vivo; details: Musca domestica 3-day old adult females, without synergist, from LC50
Description: as §1, §5, §2

[8] = test system: Plutella xylostella; assay: Knockdown of Plutella xylostella (cabbage leaf dip test); type: in vivo; details: foliar, Plutella xylostella 3rd instar larvae, knockdown after 24 hours, read-out: Plutella % KD at 25.0 ppm
Text: as §3, §4
A 9.0 cm square of cabbage leaf was dipped for 4 seconds in the aqueous suspension of the test compound, and allowed to dry. The leaf was placed on filter paper in a Petri dish (9.0 cm). Five 3rd instar larvae were placed on the leaf, and the dish was placed in a polythene bag containing a wet cotton-wool pad. Knockdown was recorded after 24 hours.

[9] = Photostability of a deposit exposed to a light source; type: physicochemical; details: times greater than Resmethrin
Text: Photostability is an important feature when the insecticide is applied to foliage. […] A deposit of selected Examples and Resmethrin was exposed to a light source and tested at increasing time intervals.

SMILES: CC(C)C(C(=O)OC(C#N)c1cccc(Oc2ccccc2)c1)c1ccc2c(c1)CCO2 (stereo not drawn) [Example 10, α-Cyano-m-phenoxybenzyl 2,3-dihydro-α-isopropylbenzofuran-5-acetate]
Activity Relative to Resmethrin = 100, Blattella [1]: 207 | Activity Relative to Resmethrin = 100, Aedes [2]: 286 | Activity Relative to Resmethrin = 100, Tribolium [3]: 159 | mortality at 500 ppm [4]: < 20% | Megoura % KD at 1.0 ppm [5]: 0% | Activity Relative to Resmethrin = 100, Musca with Synergist [6]: 575 | Activity Relative to Resmethrin = 100, Musca Alone [7]: 18

SMILES: CC(C)C(C(=O)OCc1cccc(Oc2ccccc2)c1)c1ccc2sccc2c1 (stereo not drawn) [Example 3, m-Phenoxybenzyl α-isopropylbenzo(b)thiophene-5-acetate]
Activity Relative to Resmethrin = 100, Blattella [1]: 62 | mortality at 25 ppm [8]: 47.5% | Activity Relative to Resmethrin = 100, Aedes [2]: 6.5 | Activity Relative to Resmethrin = 100, Tribolium [3]: 29.2 | mortality at 500 ppm [4]: 76.7% | Megoura % KD at 1.0 ppm [5]: 61.25% | Activity Relative to Resmethrin = 100, Musca with Synergist [6]: 100 | Activity Relative to Resmethrin = 100, Musca Alone [7]: 17

SMILES: Cc1oc2cc(C(C(=O)OCc3cccc(Oc4ccccc4)c3)C(C)C)ccc2c1C (stereo not drawn) [Example 15, m-Phenoxybenzyl 2,3-dimethyl-α-isopropylbenzofuran-6-acetate]
Activity Relative to Resmethrin = 100, Blattella [1]: < 10 | Activity Relative to Resmethrin = 100, Aedes [2]: 118 | Activity Relative to Resmethrin = 100, Tribolium [3]: 4.7 | mortality at 500 ppm [4]: 100% | Megoura % KD at 1.0 ppm [5]: 90% | Activity Relative to Resmethrin = 100, Musca with Synergist [6]: 24 | Activity Relative to Resmethrin = 100, Musca Alone [7]: 1

SMILES: CC(C)C(C(=O)OCc1cccc(Oc2ccccc2)c1)c1ccc2c(Cl)coc2c1 (stereo not drawn) [Example 6, m-Phenoxybenzyl 3-chloro-α-isopropylbenzofuran-6-acetate]
Activity Relative to Resmethrin = 100, Aedes [2]: 151 | Activity Relative to Resmethrin = 100, Tribolium [3]: 80.4 | Activity Relative to Resmethrin = 100, Musca with Synergist [6]: 110 | Activity Relative to Resmethrin = 100, Musca Alone [7]: 20

SMILES: CC(C)C(C(=O)OC(C#N)c1cccc(Oc2ccccc2)c1)c1ccc(Cl)c2oc(Br)cc12 (stereo not drawn) [Example 13, α-Cyano-m-phenoxybenzyl 2-bromo-7-chloro-α-isopropylbenzofuran-4-acetate]
Activity Relative to Resmethrin = 100, Blattella [1]: < 10 | Activity Relative to Resmethrin = 100, Aedes [2]: 267 | Activity Relative to Resmethrin = 100, Tribolium [3]: < 2 | mortality at 500 ppm [4]: < 10% | Megoura % KD at 1.0 ppm [5]: 86.6% | Activity Relative to Resmethrin = 100, Musca with Synergist [6]: 417 | Activity Relative to Resmethrin = 100, Musca Alone [7]: 10

SMILES: CC(C)C(C(=O)OCc1cccc(Oc2ccccc2)c1)c1cccc2occc12 (stereo not drawn) [Example 5, m-Phenoxybenzyl α-isopropylbenzofuran-4-acetate]
Activity Relative to Resmethrin = 100, Blattella [1]: 20.7 | mortality at 25 ppm [8]: 57.5% | Activity Relative to Resmethrin = 100, Aedes [2]: 211 | Activity Relative to Resmethrin = 100, Tribolium [3]: 50 | mortality at 500 ppm [4]: 33.2% | Megoura % KD at 1.0 ppm [5]: 32.5% | Activity Relative to Resmethrin = 100, Musca with Synergist [6]: 27 | Activity Relative to Resmethrin = 100, Musca Alone [7]: 9

SMILES: CC(C)C(C(=O)OC(C#N)c1cccc(Oc2ccccc2)c1)c1ccc(Cl)c2occc12 (stereo not drawn) [Example 12, α-Cyano-m-phenoxybenzyl 7-chloro-α-isopropylbenzofuran-4-acetate]
Activity Relative to Resmethrin = 100, Blattella [1]: 207 | Activity Relative to Resmethrin = 100, Aedes [2]: 417 | Activity Relative to Resmethrin = 100, Tribolium [3]: 100 | mortality at 500 ppm [4]: < 10% | Megoura % KD at 1.0 ppm [5]: 15% | Activity Relative to Resmethrin = 100, Musca with Synergist [6]: 454 | Activity Relative to Resmethrin = 100, Musca Alone [7]: 140

Further lines, with some results ahead:

Megoura % KD at 1.0 ppm [5]: 35%
SMILES: CC(C)C(C(=O)OC(C#N)c1cccc(Oc2ccccc2)c1)c1ccc2cc(Br)oc2c1 (stereo not drawn) [Example 11, α-Cyano-m-phenoxybenzyl 2-bromo-α-isopropylbenzofuran-6-acetate]
Activity Relative to Resmethrin = 100, Blattella [1]: 207 | Activity Relative to Resmethrin = 100, Aedes [2]: 160 | Activity Relative to Resmethrin = 100, Tribolium [3]: 88 | mortality at 500 ppm [4]: < 20% | Activity Relative to Resmethrin = 100, Musca with Synergist [6]: 417 | Activity Relative to Resmethrin = 100, Musca Alone [7]: 68

Megoura % KD at 1.0 ppm [5]: 98.3%
SMILES: CC(C)C(C(=O)OC(C#N)c1cccc(Oc2ccccc2)c1)c1ccc2c(Cl)coc2c1 (stereo not drawn) [Example 7, α-Cyano-m-phenoxybenzyl 3-chloro-α-isopropylbenzofuran-6-acetate]
Activity Relative to Resmethrin = 100, Blattella [1]: 1240 | mortality at 25 ppm [8]: 100% | Activity Relative to Resmethrin = 100, Aedes [2]: 250 | Activity Relative to Resmethrin = 100, Tribolium [3]: 411 | mortality at 500 ppm [4]: 88.8% | Activity Relative to Resmethrin = 100, Musca with Synergist [6]: 6060 | Activity Relative to Resmethrin = 100, Musca Alone [7]: 133

photostability half-life relative to Resmethrin [9]: 21.5 times
SMILES: CC(C)C(C(=O)OC(C#N)c1cccc(Oc2ccccc2)c1)c1ccc2sccc2c1 (stereo not drawn) [Example 4, α-Cyano-m-phenoxybenzyl α-isopropylbenzo(b)thiophene-5-acetate]
Activity Relative to Resmethrin = 100, Blattella [1]: 62 | Activity Relative to Resmethrin = 100, Aedes [2]: 105 | Activity Relative to Resmethrin = 100, Musca with Synergist [6]: 400 | Activity Relative to Resmethrin = 100, Musca Alone [7]: 16

photostability half-life relative to Resmethrin [9]: 17.5 times | Megoura % KD at 1.0 ppm [5]: 97.5%
SMILES: CC(C)C(C(=O)OC(C#N)c1cccc(Oc2ccccc2)c1)c1ccc2ccoc2c1 (stereo not drawn) [Example 2, α-Cyano-m-phenoxybenzyl α-isopropylbenzofuran-6-acetate]
Activity Relative to Resmethrin = 100, Blattella [1]: 459 | mortality at 25 ppm [8]: 97.5% | Activity Relative to Resmethrin = 100, Aedes [2]: 286 | Activity Relative to Resmethrin = 100, Tribolium [3]: 583 | mortality at 500 ppm [4]: 83.7% | Activity Relative to Resmethrin = 100, Musca with Synergist [6]: 606 | Activity Relative to Resmethrin = 100, Musca Alone [7]: 123

Megoura % KD at 1.0 ppm [5]: 66.9%
SMILES: CC(C)C(C(=O)OC(C#N)c1cccc(Oc2ccccc2)c1)c1cccc2occc12 (stereo not drawn) [Example 8, α-Cyano-m-phenoxybenzyl α-isopropylbenzofuran-4-acetate]
Activity Relative to Resmethrin = 100, Blattella [1]: 206 | mortality at 25 ppm [8]: 87.5% | Activity Relative to Resmethrin = 100, Aedes [2]: 108 | Activity Relative to Resmethrin = 100, Tribolium [3]: 194 | mortality at 500 ppm [4]: 100% | Activity Relative to Resmethrin = 100, Musca with Synergist [6]: 926 | Activity Relative to Resmethrin = 100, Musca Alone [7]: 125

Megoura % KD at 1.0 ppm [5]: 63.7%
SMILES: CC(C)C(C(=O)OCc1cccc(Oc2ccccc2)c1)c1ccc2ccoc2c1 (stereo not drawn) [Example 1, m-Phenoxybenzyl α-isopropylbenzofuran-6-acetate]
Activity Relative to Resmethrin = 100, Blattella [1]: 197 | mortality at 25 ppm [8]: 97.5% | Activity Relative to Resmethrin = 100, Aedes [2]: 182 | Activity Relative to Resmethrin = 100, Tribolium [3]: 102.9 | mortality at 500 ppm [4]: 65.5% | Activity Relative to Resmethrin = 100, Musca with Synergist [6]: 87 | Activity Relative to Resmethrin = 100, Musca Alone [7]: 88

Megoura % KD at 1.0 ppm [5]: 93.75%
SMILES: CC(C)C(C(=O)OC(C#N)c1cccc(Oc2ccccc2)c1)c1ccc2occc2c1 (stereo not drawn) [Example 9, α-Cyano-m-phenoxybenzyl α-isopropylbenzofuran-5-acetate]
Activity Relative to Resmethrin = 100, Blattella [1]: 1378 | mortality at 25 ppm [8]: 90% | Activity Relative to Resmethrin = 100, Aedes [2]: 174 | Activity Relative to Resmethrin = 100, Tribolium [3]: 389 | mortality at 500 ppm [4]: 81.7% | Activity Relative to Resmethrin = 100, Musca with Synergist [6]: 333 | Activity Relative to Resmethrin = 100, Musca Alone [7]: 186

Megoura % KD at 1.0 ppm [5]: 93.3%
SMILES: Cc1oc2cc(C(C(=O)OC(C#N)c3cccc(Oc4ccccc4)c3)C(C)C)ccc2c1C (stereo not drawn) [Example 14, α-Cyano-m-phenoxybenzyl 2,3-dimethyl-α-isopropylbenzofuran-6-acetate]
Activity Relative to Resmethrin = 100, Blattella [1]: 62 | Activity Relative to Resmethrin = 100, Aedes [2]: 200 | Activity Relative to Resmethrin = 100, Tribolium [3]: < 17.5 | mortality at 500 ppm [4]: 46.7% | Activity Relative to Resmethrin = 100, Musca with Synergist [6]: 179 | Activity Relative to Resmethrin = 100, Musca Alone [7]: 12
